Assay results: patent publication US9278962B2 (Cytokinetics, Inc., priority 2011, dated 2016)

Test system: rabbit skeletal myofibrils (approximately 90% fast fibers)
Experiment: Activation of fast skeletal myofibrils (PUMA coupled-enzyme ATPase assay, AC1.4)
Format: biochemical
Settings: concentration at which the compound increased enzymatic activity by 40%, calcium at pCa25

| SMILES | Mean AC1.4 (Table 2) | Mean AC1.4 (Table 3) |
| --- | --- | --- |
| CC(C)(CNc1nc(-c2cccc(C(N)=O)c2)ns1)c1ccc(F)cn1 [3-(5-{[2-(5-fluoro(2-pyridyl))-2-methylpropyl]amino}-1,2,4-thiadiazol-3-yl)benzamide] | B (B=1-10 uM) |  |
| C[C@H](CNc1nc(-c2cccc(C(N)=O)c2)ns1)c1ccc(F)cc1 [3-(5-{[(2S)-2-(4-fluorophenyl)propyl]amino}-1,2,4-thiadiazol-3-yl)benzamide] | A (A=<1 uM) |  |
| CC(C)(CNc1nc(Cl)ns1)c1ccc(F)cc1 [3-Chloro-N-(2-(4-fluorophenyl)-2-methylpropyl)-1,2,4-thiadiazol-5-amine] | B (B=1-10 uM) |  |
| CN(C)c1nc(-c2cccc(C(N)=O)c2)ns1 [3-[5-(dimethylamino)-1,2,4-thiadiazol-3-yl]benzamide] | D (D=>20 uM) |  |
| CC(=O)N1CCC(CNc2nc(-c3cccc(C(N)=O)c3)ns2)(c2ccc(F)cc2)CC1 [3-[5-({[1-acetyl-4-(4-fluorophenyl)-4-piperidyl]methyl}amino)-1,2,4-thiadiazol-3-yl]benzamide] | D (D=>20 uM) |  |
| CN1CCC(CNc2nc(-c3cccc(C(N)=O)c3)ns2)(c2ccc(F)cc2)CC1 [3-[5-({[4-(4-fluorophenyl)-1-methyl-4-piperidyl]methyl}amino)-1,2,4-thiadiazol-3-yl]benzamide] | D (D=>20 uM) |  |
| NC(=O)c1cccc(-c2nsc(NCC3(c4ccc(F)cc4)CCNCC3)n2)c1 [3-[5-({[4-(4-fluorophenyl)-4-piperidyl]methyl}amino)-1,2,4-thiadiazol-3-yl]benzamide] | D (D=>20 uM) |  |
| Oc1cccc(Cc2nsc(NCCc3cccc(Cl)c3)n2)c1 [3-[(5-{[2-(3-chlorophenyl)ethyl]amino}-1,2,4-thiadiazol-3-yl)methyl]phenol] | B (B=1-10 uM) |  |
| CC(C)(CNc1nc(Cc2cccc(O)c2)ns1)c1ccc(Cl)cc1 [3-[(5-{[2-(4-chlorophenyl)-2-methylpropyl]amino}-1,2,4-thiadiazol-3-yl)methyl]phenol] | A (A=<1 uM) |  |
| Oc1cccc(Cc2nsc(NCCc3ccc(Cl)cc3)n2)c1 [3-[(5-{[2-(4-chlorophenyl)ethyl]amino}-1,2,4-thiadiazol-3-yl)methyl]phenol] | B (B=1-10 uM) |  |
| CC(C)(CNc1nc(Cc2cccc(O)c2)ns1)c1ccc(F)cc1 [3-[(5-{[2-(4-fluorophenyl)-2-methylpropyl]amino}-1,2,4-thiadiazol-3-yl)methyl]phenol] | A (A=<1 uM) |  |
| CN(CC(C)(C)c1ccc(F)cc1)c1nc(Cc2cccc(O)c2)ns1 [3-[(5-{[2-(4-fluorophenyl)-2-methylpropyl]methylamino}-1,2,4-thiadiazol-3-yl)methyl]phenol] | D (D=>20 uM) |  |
| Oc1ccc(CCNc2nc(Cc3cccc(O)c3)ns2)cc1 [3-[(5-{[2-(4-hydroxyphenyl)ethyl]amino}-1,2,4-thiadiazol-3-yl)methyl]phenol] | D (D=>20 uM) |  |
| C[C@@H](CNc1nc(Cc2cccc(O)c2)ns1)c1ccc(F)cc1 [3-[(5-{[(2R)-2-(4-fluorophenyl)propyl]amino}-1,2,4-thiadiazol-3-yl)methyl]phenol] | A (A=<1 uM) |  |
| C[C@H](CNc1nc(Cc2cccc(O)c2)ns1)c1ccc(F)cc1 [3-[(5-{[(2S)-2-(4-fluorophenyl)propyl]amino}-1,2,4-thiadiazol-3-yl)methyl]phenol] | A (A=<1 uM) |  |
| Oc1cccc(Cc2nsc(NCc3ccc(Cl)c(Cl)c3)n2)c1 [3-[(5-{[(3,4-dichlorophenyl)methyl]amino}-1,2,4-thiadiazol-3-yl)methyl]phenol] | D (D=>20 uM) |  |

| SMILES | Mean AC1.4 (Table 2) | Mean AC1.4 (Table 3) |
| --- | --- | --- |
| Oc1cccc(Cc2nsc(NCc3ccc(Cl)cc3)n2)c1 [3-[(5-{[(4-chlorophenyl)methyl]amino}-1,2,4-thiadiazol-3-yl)methyl]phenol] | D (D=>20 uM) |  |
| CC(C)(CNc1nc(-c2ccc(O)cc2Cl)ns1)c1ccc(F)cc1 [3-chloro-4-(5-{[2-(4-fluorophenyl)-2-methylpropyl]amino}(1,2,4-thiadiazol-3-yl))phenol] | A (A=<1 uM) |  |
| NC(=O)c1cccc(-c2nsc(NCC(=O)C3CCCCN3)n2)c1 (stereo not shown) [3-{5-[(2-oxo-2-piperidylethyl)amino]-1,2,4-thiadiazol-3-yl}benzamide] | D (D=>20 uM) |  |
| N#Cc1cccc(-c2nsc(NCC(=O)C3CCCCN3)n2)c1 (stereo not shown) [3-{5-[(2-oxo-2-piperidylethyl)amino]-1,2,4-thiadiazol-3-yl}benzenecarbonitrile] | D (D=>20 uM) |  |
| NC(=O)c1cccc(-c2nsc(NCCc3ccccc3)n2)c1 [3-{5-[(2-phenylethyl)amino]-1,2,4-thiadiazol-3-yl}benzamide] | C (C=10-20 uM) |  |
| NC(=O)c1cccc(-c2nsc(NCCCc3ccccc3)n2)c1 [3-{5-[(3-phenylpropyl)amino]-1,2,4-thiadiazol-3-yl}benzamide] | D (D=>20 uM) |  |
| CC(C)(CNc1nc(CNCCCO)ns1)c1ccc(F)cc1 [3-{[(5-{[2-(4-fluorophenyl)-2-methylpropyl]amino}-1,2,4-thiadiazol-3-yl)methyl]amino}propan-1-ol] | D (D=>20 uM) |  |
| NC(=O)c1ccc(-c2nnc(NCC3(c4ncccc4F)CCC3)s2)cc1 [4-(5-((1-(3-fluoropyridin-2-yl)cyclobutyl)methylamino)-1,3,4-thiadiazol-2-yl)benzamide] |  | D (D=>20 uM) |
| N#Cc1ccc(-c2nnc(NCC3(c4ncccc4F)CCC3)s2)cc1 [4-(5-((1-(3-fluoropyridin-2-yl)cyclobutyl)methylamino)-1,3,4-thiadiazol-2-yl)benzonitrile] |  | D (D=>20 uM) |
| CC(C)(O)CCc1nsc(NCC(C)(C)c2ccc(F)cc2)n1 [4-(5-{[2-(4-fluorophenyl)-2-methylpropyl]amino}(1,2,4-thiadiazol-3-yl))-2-methylbutan-2-ol] | B (B=1-10 uM) |  |
| CC(C)(CNc1nc(-c2ccc(C(N)=O)cc2)ns1)c1ccc(F)cc1 [4-(5-{[2-(4-fluorophenyl)-2-methylpropyl]amino}-1,2,4-thiadiazol-3-yl)benzamide] | A (A=<1 uM) |  |
| CC(C)(CNc1nc(-c2ccc(O)cc2)ns1)c1ccc(F)cc1 [4-(5-{[2-(4-fluorophenyl)-2-methylpropyl]amino}-1,2,4-thiadiazol-3-yl)phenol] | A (A=<1 uM) |  |
| C[C@H](CNc1nc(-c2ccc(C(N)=O)cc2)ns1)c1ccc(F)cc1 [4-(5-{[(2S)-2-(4-fluorophenyl)propyl]amino}-1,2,4-thiadiazol-3-yl)benzamide] | A (A=<1 uM) |  |
| COc1cccc(Cc2nsc(NCCc3ccc(S(N)(=O)=O)cc3)n2)c1 [4-[2-({3-[(3-methoxyphenyl)methyl]-1,2,4-thiadiazol-5-yl}amino)ethyl]benzenesulfonamide] | D (D=>20 uM) |  |
| NS(=O)(=O)c1ccc(CCNc2nc(Cc3ccc(F)cc3)ns2)cc1 [4-[2-({3-[(4-fluorophenyl)methyl]-1,2,4-thiadiazol-5-yl}amino)ethyl]benzenesulfonamide] | D (D=>20 uM) |  |
